Assay results taken from paper PMC11079064, “Discovery of a brain penetrant small molecule antagonist targeting LPA1 receptors to reduce neuroinflammation and promote remyelination in multiple sclerosis” (Scientific Reports, 2024).
Read-outs that look alike come from different tables or passages of the source.

Assays:
[1] = test system: off-target panel (SAFETYscan E/IC50 ELECT); test: Eurofins off-target panel (SAFETYscan E/IC50 ELECT); conditions: test concentration 30 µM
Text: Supplemental Figure 1. Results from Eurofins SAFETYscan E/IC50 ELECT.

LPA1 = target: T1, LPA1 (Mus musculus, UniProt P61793); test: In vivo brain LPA1 receptor occupancy with [3H]-OPC3497
T1 construct: from tissue; host or cells: mouse brain (homogenate; forebrain of dosed C57BL6/N mice in the in vivo studies)
T1 sequence (P61793 whole entry): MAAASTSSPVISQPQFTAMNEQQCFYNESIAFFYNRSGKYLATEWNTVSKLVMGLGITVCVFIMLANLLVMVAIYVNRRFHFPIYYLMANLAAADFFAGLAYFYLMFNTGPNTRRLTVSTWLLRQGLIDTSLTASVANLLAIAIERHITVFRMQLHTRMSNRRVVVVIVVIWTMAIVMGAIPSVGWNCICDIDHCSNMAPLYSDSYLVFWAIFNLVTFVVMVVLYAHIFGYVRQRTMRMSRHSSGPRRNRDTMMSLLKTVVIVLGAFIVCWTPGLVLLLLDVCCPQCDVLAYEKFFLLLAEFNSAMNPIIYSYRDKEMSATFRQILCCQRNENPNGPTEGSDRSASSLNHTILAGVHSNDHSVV
Description: [^3H]-OPC3497 was diluted to 9.8 µCi/mL in saline and administered via IV injection to the lateral tail vein at a dose volume of 5 ml/kg at the times indicated. Mice were euthanized by decapitation, trunk blood collected into K3EDTA tubes and stored on wet ice, each brain rapidly dissected and the forebrain isolated, weighed and placed into a 5 ml polypropylene tube. Tissues were diluted with a 10 × volume of ice-cold binding buffer (50 mM HEPES, 100 mM NaCl, 2 mM EDTA, pH 7.4). Brains were homogenized and 350 µl of the homogenate was filtered over Whatman GF/B filters (GE Life Sciences, Marlborough, MA) pre-wetted with 0.5% polyethyleneimine. Filters were washed with cold 50 mM TRIS–HCl, 154 mM NaCl, 0.05% Tween 20, pH 7.4 twice and dried in an oven (~ 40–50 °C). 5 ml Ultima Gold F scintillation fluid (Perkin Elmer, Boston, MA, Boston, MA) was added to each tube and samples read on a Beckman LS6500 liquid scintillation counter. After all samples were collected, dissected, and filtered, the previously collected blood in K3EDTA tubes was centrifuged (1450 × g, 10 min, 4 °C) to separate plasma.

[2] = Plasma concentration time course after oral dose; assay type: in vivo; conditions: 3 mg/kg oral, mouse
[3] = test system: mouse cortical brain slices; test: Lysolecithin-treated mouse organotypic slice culture, Mbp transcript; assay type: cell-based; conditions: lysolecithin 18 h, then 3 days treatment; read-out: EC50 of Mbp transcript increase
Description: We next used an ex vivo organotypic brain slice culture to assess remyelination following a demyelinating insult. Mouse cortical brain slices were treated with lysolecithin, which induces acute demyelination through a non-specific lipid-based mechanism. […] After 3 additional days, the brain slices were processed for Mbp.
Evaluation of Mbp transcript in mouse brain slice culture: Brains were collected from P17 mice and placed into ice cold HBSS containing 20% FBS. Brains were bisected sagittally and 250 µm coronal slices made with a manual tissue chopper. Only slices anterior to the hippocampus displaying a discrete corpus callosum were used. Approximately 12 slices are obtained per animal. Slices were laid on a 30 mm MilliCell organotypic culture insert in a 6-well culture dish containing 1.1 mL growth media (DMEM, 25% HBSS-Ca^2+/-Mg^2+, 25% heat inactivated horse serum, glucose (5 g/l), 25 mM ascorbic acid and penicillin/streptomycin). Slices were cultured in vitro for 72 h with a 50% media change at 24 h. After 72 h, slices were demyelinated using media containing 0.5 mg/ml lysolecithin for 18 h. […] Slices were snap frozen and RNA extracted using the RNEasy Mini kit (Qiagen). […] Data was calculated using 2^−ΔΔCt , normalizing to 18S RNA and vehicle.

MOG-EAE mouse model = test: MOG-EAE mouse model, body weight and clinical score; assay type: in vivo
Description: This model recapitulates several of the features thought to occur in MS and is a widely used model of inflammatory demyelination.
On Day 0, EAE was induced using a MOG35–55/CFA Emulsion PTX Hooke Kit™ (Hooke Laboratories, Lawrence, MA). Briefly, per manufacturer’s instructions, each mouse was administered a total of 0.2 ml emulsion delivered via dorsal subcutaneous injections of 0.1 ml each to the mid-scapula and lower lumbar regions. Pertussis toxin was prepared per lot-specific instructions and administered via intraperitoneal injection of 0.1 ml (200 ng) on Day 0, 2 h post-MOG administration, and again on Day 1, 24 h post-MOG.
Each treatment group contained 12 mice, except for the age-matched control group which contained 8 mice.
Body weights and clinical scores were recorded daily.

time for which LPA1 occupancy was sustained (LPA1; 3 mg/kg oral, followed out to 7 days): 24 h
EC50 (LPA1; once daily for 4 consecutive days (steady state), read-out: unbound brain EC50): 2.4 nM
LPA1 receptor occupancy ED50 (LPA1; single oral dose 2 h prior to radioligand, mouse brain): 0.17 mg/kg
LPA1 receptor occupancy ED50 (LPA1; single oral dose 24 h prior to radioligand, mouse brain): 0.19 mg/kg
EC50 (LPA1; single oral dose, unbound brain concentration versus occupancy, read-out: unbound brain EC50 (Cu, brain)): 2.2 nM
LPA1 receptor occupancy ED50 (LPA1; steady state: once daily for 4 days, occupancy 2 h after fourth dose): 0.03 mg/kg
plasma concentration after 3 days [2]: below the limit of detection
time of peak plasma concentration [2]: 2 h
EC50 [3]: 12.1 nM
Compound: COc1ccc(NC(=O)N(c2ccccc2C(C)C)C2CCC(C(=O)O)CC2)c(OC(F)F)n1 (centres unmarked) [PIPE-791]
off-target activities [1]: no appreciable activities
clinical score by day 24 (MOG-EAE mouse model; 0.3 mg/kg oral once daily): 1.5
disease onset (MOG-EAE mouse model; 0.3 mg/kg oral once daily): 14 days
peak clinical score (MOG-EAE mouse model; 0.3 mg/kg oral once daily): 2.1
clinical score at study end (MOG-EAE mouse model; 3 mg/kg oral once daily): 1.5
disease onset (MOG-EAE mouse model; 3 mg/kg oral once daily): 14 days
peak clinical score (MOG-EAE mouse model; 3 mg/kg oral once daily): 1.4
cumulative body weight (day 0 to 24) (MOG-EAE mouse model; 0.3 and 3 mg/kg oral once daily): Significant increases
